How the values were obtained:
Type in all cases: cell-based, human
[1] = test system: osteocalcin (OCN) gene expression in dental pulp stem cells (DPSCs); experiment: Gene expression of OCN (marker of calcification) in DPSCs by RT-PCR; conditions: for gene expression of OCN compared with the control and the comparison (BMP-2): 1 μM, day 14, Example 2, FIG. 6
Description: (§1) Specifically, the DPSCs prepared above (1) were cultured under a 5% CO2 gas phase at 37° C. in α-MEM culture medium including 10% fetal bovine serum (FBS) containing SVS at a concentration of 1 μM, L-ascorbic acid (0.1 mM), L-glutamine (2 mM), penicillin (100 μg/ml), and streptomycin (100 μg/ml). Total RNA was collected from cells obtained on day 3, day 7, and day 10 from the beginning of cultivation, and gene expression of dentin sialophosphoprotein (DSPP), i.e., an odontoblast-specific marker (Ritchie H H et al. J. Biol. Chem., 269:3698-702, 1994; Butler W T et al. Matrix., 12:343-51, 1992), and gene expression of osteocalcin (OCN), i.e., a marker of calcification (Bronckers A L et al. Connect Tissue Res., 22:65-70, 1989) were evaluated using qualitative RT-PCR (Narayanan K et al., J. Biol. Chem., 281(28):19064-71, 2006).
Dental pulp stem cells (DPSCs) were cultured in a manner similar to Example 1, section (3), using simvastatin (1 μM), fluvastatin (1 μM), mevastatin (1 μM), lovastatin (1 μM), and plavastatin (200 μM) respectively as HGM-CoA reductase inhibitors. Gene expression of OCN, i.e., a marker of calcification was evaluated on day 14, using qualitative RT-PCR.

[2] = test system: dental pulp stem cells (DPSCs); experiment: Proliferation of dental pulp stem cells, cell number by the MTS method; conditions: for effect on proliferation of DPSCs compared with the control: 1 μM, Example 2, FIG. 5
Description: Dental pulp stem cells (DPSCs) were isolated in accordance with a method of Gronthos et al. (Proc. Natl. Acad. Sci. USA, 97: 13625-30, 2000) from a human extracted tooth that was submitted with informed consent under the permission of Okayama University Dental School Ethics Committee.
Specifically, pulp obtained from an extracted human tooth was enzyme-treated for 30 minutes at 37° C. with 3 mg/ml type 1 collagenase (Worthington Biochemicals Corp.) and 4 mg/ml dispase (Roche Diagnostic/Boehringer Mannheim Corp.), and then cultured using α-MEM culture medium containing 10% fetal bovine serum (FBS), L-ascorbic acid (0.1 mM), L-glutamine (2 mM), penicillin (100 μg/ml), and streptomycin (100 μg/ml).
Specifically, the DPSCs prepared above (1) were cultured under 5% CO2 at 37° C. in α-MEM culture medium including 10% fetal bovine serum (FBS) containing SVS at a concentration of 1 μM, L-ascorbic acid (0.1 mM), L-glutamine (2 mM), penicillin (100 μg/ml), and streptomycin (100 μg/ml). The culture medium was exchanged twice a week, and the number of cells on […] was indirectly evaluated using the MTS method (Barltrop, J. A. et al. 5-(3-carboxymethoxyphenyl)-2-(4,5-dimenthylthiazoly)-3-(4-sulfophenyl)tetrazolium, inner salt (MTS) and related analogs of 3-(4,5-dimethylthiazolyl)-2,5-diphenyl-tetrazolium bromide (MTT) reducing to purple water-soluble formazans as cell-viability indicators. Bioorg. & Med. Chem. Lett. 1, 611, 1991).
On day 0, day 3, and day 5 from the beginning of cultivation, the cell number of DPSCs was measured using the MTS method.
On day 5 from the beginning of cultivation, the cell number of DPSCs was measured using the MTS method.
Specifically, in Example 1, section (2), dental pulp stem cells (DPSCs) were cultured in the presence of each of the following: (a) simvastatin (1 μM) (simvastatin added group); (b) simvastatin (1 μM) and mevalonate (1 mM) (mevalonate added group); and (c) simvastatin (1 μM), mevalonate (1 mM) and Fasudil (10 μM) (Fasudil combined use group). On day 0, day 3, and day 5 from the beginning of cultivation, the cell number of DPSCs was measured using the MTS method.

[3] = test system: dentin sialophosphoprotein (DSPP) gene expression in dental pulp stem cells (DPSCs); experiment: Gene expression of DSPP (odontoblast-specific marker) in DPSCs by RT-PCR; conditions: SVS 1 μM, p=0.0111
Description: as §1

Molecule: CC[C@H](C)C(=O)O[C@H]1CCC=C2C=C[C@H](C)[C@H](CC[C@@H]3C[C@@H](O)CC(=O)O3)[C@H]21 [mevastatin]
- gene expression of OCN compared with the control and the comparison (BMP-2) [1]: increase in gene expression of OCN
- effect on proliferation of DPSCs compared with the control ([2]; day 5): inhibited proliferation of DPSCs with a significant difference

Molecule: CCC(C)(C)C(=O)O[C@H]1C[C@@H](C)C=C2C=C[C@H](C)[C@H](CC[C@@H]3C[C@@H](O)CC(=O)O3)[C@H]21 [simvastatin]
- increase in gene expression of OCN compared with the BMP-2 ([1]; SVS 1 μM vs BMP-2 100 ng/ml, DPSCs, p=0.0002, Scheffe's multiple comparison test): 7.4 fold
- increase in gene expression of OCN compared with the control ([1]; SVS 1 μM, DPSCs, p=0.0004, Scheffe's multiple comparison test): 18.8 fold
- proliferation of dental pulp stem cells (DPSCs) ([2]; SVS 1 μM, day 5 from the beginning of cultivation, vs control (PBS), significant decrease, p<0.0001): 0.73 fold
- increase in gene expression of DSPP [3]: 10.9 fold

Molecule: CC[C@H](C)C(=O)O[C@H]1C[C@@H](C)C=C2C=C[C@H](C)[C@H](CC[C@@H]3C[C@@H](O)CC(=O)O3)[C@H]21 [lovastatin]
- gene expression of OCN compared with the control and the comparison (BMP-2) [1]: increase in gene expression of OCN
- effect on proliferation of DPSCs compared with the control ([2]; day 5): inhibited proliferation of DPSCs with a significant difference

Molecule: O=C(O)C[C@H](O)C[C@H](O)/C=C/c1c(C2CC2)nc2ccccc2c1-c1ccc(F)cc1 [pitavastatin]
- effect on proliferation of DPSCs compared with the control ([2]; day 5): inhibited proliferation of DPSCs with a significant difference

Molecule: CC(C)n1c(/C=C/C(O)CC(O)CC(=O)O)c(-c2ccc(F)cc2)c2ccccc21 (stereo not drawn) [fluvastatin]
- gene expression of OCN compared with the control and the comparison (BMP-2) [1]: increase in gene expression of OCN
- effect on proliferation of DPSCs compared with the control ([2]; day 5): inhibited proliferation of DPSCs with a significant difference

Molecule: CC(O)(CCO)CC(=O)O (stereo not drawn) [mevalonate]
- effect of mevalonate supply on simvastatin-induced inhibition of DPSC proliferation ([2]; simvastatin 1 μM + mevalonate 1 mM, day 5, FIG. 8): disappearance of the cell proliferation inhibiting effect

Molecule: O=S(=O)(c1cccc2cnccc12)N1CCCNCC1 [Fasudil]
- effect on proliferation of DPSCs ([2]; Fasudil at not less than 10 μM (tested 1, 10, 100 μM), day 5, FIG. 7): inhibited proliferation of DPSCs
- effect on cell proliferation of DPSCs, Fasudil combined use group ([2]; simvastatin 1 μM + mevalonate 1 mM + Fasudil 10 μM, day 5, FIG. 8): greater inhibition of cell proliferation of DPSCs than the comparison

B1: Noggin: a BMP inhibitor (R&D systems) (protein, UniProt Q13253 28-232, looked up)
Noggin: QHYLHIRPAPSDNLPLVDLIEHPDPIFDPKEKDLNETLLRSLLGGHYDPGFMATSPPEDRPGGGGGAAGGAEDLAELDQLLRQRPSGAMPSEIKGLEFSEGLAQGKKQRLSKKLRRKLQMWLWSQTFCPVLYAWNDLGSRFWPRYVKVGSCFSKRSCSVPEGMVCKPSKSVHLTVLRWRCQRRGGQRCGWIPIQYPIISECKCSC
- effect on cellular proliferation of DPSCs compared with the control ([2]; day 5, Example 4, FIG. 9, statin = simvastatin 1 μM): an effect on cellular proliferation of DPSCs was not observed
